Legend:
ShCamkk2 M1 cells = format: cell-based
Procedure: FIG. 6A-6F. CaMKK2 couples radiation signaling with the AMPK anti-proliferative pathway. HSPC (KL+KSL) were isolated from WT and Camkk2 null (KO) mice and irradiated in vitro with 400 cGy or left non-irradiated. Cells were then cultured for 1-h in regular medium. Protein expression was normalized by actin and expressed as fold change over basal (non-irradiated WT HSPC), and is reported on the top of each lane. (A) Immunoblots of CaMKK2, phospho-CaMK1 (pCaMK1) and actin. (B) Immunoblots of Tp53, phosphorylated AMPK and S6rp (pAMPK and pS6rp, respectively). (C-E) M1 myeloid progenitor cells were transduced with lentiviral vectors expressing a short hairpin sequence for silencing Camkk2 or a control sequence (ShCamkk2 and Ctrl, respectively). Ctrl and ShCamkk2 M1 cells were then irradiated or left non-irradiated. One-hour after irradiation, M1 cell protein expression was assessed by immunoblotting. (C) Expression of CaMKK2 and actin. […] Cell number was determined using a colorimetric assay, and the results are expressed as fold change of non-irradiated cells cultured in the absence of AICAR. […]
To determine the functional effects of Camkk2 deficiency in M1 cells, control and ShCamkk2 M1 cells were exposed to 300 cGy with or without a cell permeable AMPK agonist and the number of live M1 cells were determined 24 h after irradiation.

[1] = test system: 900 cGy TBI wild-type mice; experiment: Survival of lethally irradiated (900 cGy TBI, LD100/15) wild-type mice treated with STO-609; format: in vivo; conditions: 10 μM/kg on days 1, 2 and 3 post-TBI, intravenous, vs vehicle, n=10 per group
Procedure: (§1) FIGS. 7A-7D. Pharmacologic inhibition of CaMKK2 enhances hematopoietic regeneration in vivo. Treatment with STO-609, a CaMKK2 inhibitor, mitigates the acute hematopoietic radiation syndrome. (A) Scheme of irradiation and STO-609 treatment in wild type mice. (B) Survival of 900 cGy TBI wild-type mice treated with vehicle or STO-609 (n=10 per group). Wild-type mice were irradiated with 500 cGy TBI and were then treated with STO-609 or vehicle after 24 h. Nine days after TBI, the mice were killed and bones were removed. The BM cells were counted and stained to identify HSPC (BMC). (C) Representative staining and gating strategy. (D) Absolute number of BMC and HSPC (upper and lower graph, respectively). The results are expressed as the fold changes over the absolute number of cells recovered form vehicle-treated wild type mice, and are normalized for one femur. Two independent experiments have been combined (total number of mice-9 per group). Bars graph reports mean±S.E.M. *P-value<0.05, **P-value<0.01/
(§2) CaMKK2-EGFP transgenic reporter mice were used. Radiation was delivered by a Shepherd Cs^137γ-irradiator at a dose rate of approximately 600 cGy per min. […]
(§3) It was hypothesized that pharmacologic inhibition of CaMKK2 increases survival and HSPC recovery following TBI. […] Next, the effects of STO-609 treatment on HSPC of mice receiving 500 cGy TBI were evaluated. […]

HSPC = experiment: Bone marrow cell and HSPC recovery in 500 cGy TBI wild-type mice treated with STO-609; format: in vivo; conditions: 9 days after TBI, vs vehicle-treated mice
Procedure: as §1, §2, §3

SMILES	cell death (ShCamkk2 M1 cells; M1 cells, following radiation or AICAR treatment (data not shown))	number of live M1 cells (proliferation) after irradiation (ShCamkk2 M1 cells; ShCamkk2 M1 cells, 300 cGy, 24 h, AICAR 100 μM)	survival following TBI [1]	HSPC in the BM (HSPC)	total BM cells in the BM (HSPC)
NC(=O)c1ncn([C@@H]2O[C@H](CO)[C@@H](O)[C@H]2O)c1N [AICAR, 5-aminoimidazole-4-carboxamide 1-β-d-ribofuranoside]	no increase in cell death	reverted the refractory phenotype of ShCamkk2 M1 cells			
O=C(O)c1ccc2c3c1cccc3c(=O)n1c3ccccc3nc21 [STO-609, 7H-benzimidazo(2,1-a)benz(de)isoquinoline-7-one-3-carboxylic acid]			significantly prolonged survival	More	More total BM cells

Reference: US11426389B2, “Compositions and methods for promoting hematopoietic stem cell regeneration” (priority 2017, dated 2022)
